This passage reports IC50 results from patent US8580762B2, “Substituted purine and 7-deazapurine compounds” (Epizyme, Inc., priority 2010, dated 2013).

The IC50 is the concentration at which inhibition is half-maximal.

The target in one experiment is DOT1L(1-416) (Homo sapiens, UniProt Q8TEK3). The experiment can be described thus: Determination of IC50: DOT1L(1-416) methyltransferase assay, 3H-SAM, oligonucleosome substrate, Flashplate. The class given is biochemical. The conditions noted are these: DOT1L IC50, class symbols. As for the experimental part: Determination of IC50. Test compounds were serially diluted 3 fold in DMSO for 10 points and 1 μl was plated in a 384 well microtiter plate. […] 10 μl per well of substrate mix (same assay buffer with 200 nM S-[methyl-^3H]-adenosyl-L methionine, 600 nM of unlabeled […], and 20 nM oligonueleosome) was added to initiate the reaction. Reaction was incubated for 120 minutes at room temperature and quenched with 10 μl per well of 100 μM S-methyl-adenosyl-L methionine. For detection, substrate from 50 μl of reaction was immobilized on a 384 well Streptavidin coated Flashplate (Perkin Elmer) (also coated with 0.2% polyethyleneimine) and read on a Top Count scintillation counter (Perkin Elmer).
Sequence of DOT1L(1-416) (Q8TEK3 1-416): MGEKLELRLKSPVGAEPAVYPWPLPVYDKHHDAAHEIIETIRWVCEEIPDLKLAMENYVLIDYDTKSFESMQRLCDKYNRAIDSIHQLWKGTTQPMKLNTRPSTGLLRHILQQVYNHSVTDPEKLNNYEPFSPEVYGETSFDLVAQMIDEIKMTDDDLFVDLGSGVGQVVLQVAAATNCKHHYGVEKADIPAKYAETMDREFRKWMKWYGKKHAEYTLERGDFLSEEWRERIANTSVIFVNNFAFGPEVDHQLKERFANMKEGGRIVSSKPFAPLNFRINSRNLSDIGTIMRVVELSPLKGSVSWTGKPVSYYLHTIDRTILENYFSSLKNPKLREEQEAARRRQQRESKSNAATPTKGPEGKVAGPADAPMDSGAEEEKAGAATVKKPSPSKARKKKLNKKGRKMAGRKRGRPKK
For the compound `CC(C)[N+]([O-])(CC1O[C@@H](n2cnc3c(N)ncnc32)[C@H](O)[C@@H]1O)[C@H]1C[C@H](CCc2nc3cc(C(C)(C)C)ccc3[nH]2)C1` (stereo partly drawn) [Compound 107, (R,1s,3R)-N-(((2R,35,4R,5R)-5-(6-amino-9H-purin-9-yl)-3,4-dihydroxy-tetrahydrofuran-2-yl)methyl)-3-(2-(5-(tert-butyl)-1H-benzo[d]imidazol-2-yl)ethyl)-N-isopropyl-cyclobutanamine oxide], the IC50 was < 100 nM.

Staying with this experiment, now noted: class symbols; read-out: DOT1L IC50.
For `CCN(C[C@H]1C[C@@H](n2ccc3c(N)ncnc32)[C@H](O)[C@@H]1O)[C@H]1C[C@H](CCc2nc3cc(C(C)(C)C)ccc3[nH]2)C1` [Compound 49, (1R,2S,3R,5R)-3-(4-amino-7H-pyrrolo[2,3-d]pyrimidin-7-yl)-5-((((1s,3R)-3-(2-(5-(tert-butyl)-1H-benzo[d]imidazol-2-yl)ethyl)cyclobutyl)(ethyl)amino)methyl)cyclopentane-1,2-diol], the IC50 was < 100 nM.
On to `CC(C)N(C[C@H]1O[C@@H](n2cnc3c(N)ncnc32)[C@H](O)[C@@H]1O)C1CC(CCc2nc3cc(C4(C#N)CCC4)ccc3[nH]2)C1` (stereo partly drawn) [Compound 117, 1-(2-(2-(3-((((2R,3S,4R,5R)-5-(6-amino-9H-purin-9-yl)-3,4-dihydroxytetrahydro-furan-2-yl)methyl)(isopropyl)amino)cyclobutyl)ethyl)-1H-benzo[d]imidazol-5-yl)cyclo-butanecarbonitrile], for which the IC50 was < 100 nM.
As to `CCN(C[C@H]1C[C@@H](n2ccc3c(N)ncnc32)[C@H](O)[C@@H]1O)[C@H]1C[C@@H](CCc2nc3cc(C(C)(C)C)ccc3[nH]2)C1` [Compound 38, (1R,2S,3R,5R)-3-(4-amino-7H-pyrrolo[2,3-d]pyrimidin-7-yl)-5-((((1r,3S)-3-(2-(5-(tert-butyl)-1H-benzo[d]imidazol-2-yl)ethyl)cyclobutyl)(ethyl)amino)methyl)cyclopentane-1,2-diol], the IC50 was < 100 nM.
Regarding `CC(C)N(C[C@H]1O[C@@H](n2cnc3c(N)ncnc32)[C@H](O)[C@@H]1O)[C@H]1C[C@@H](CCc2nc3cc(C4(C)CCC4)ccc3[nH]2)C1` [Compound 28, (2R,3R,4S,5R)-2-(6-amino-9H-purin-9-yl)-5-((isopropyl((1r,3S)-3-(2-(5-(1-methylcyclobutyl)-1H-benzo[d]imidazol-2-yl)ethyl)cyclobutyl)amino)methyl)tetrahydrofuran-3,4-diol], the IC50 is < 100 nM.
In the case of `CC(C)N(C[C@@H]1C[C@@H](O)[C@H](n2ccc3c(N)ncnc32)C1)[C@H]1C[C@H](CCc2nc3cc(C(C)(C)C)ccc3[nH]2)C1` [Compound 104, (1R,2R,4S)-2-(4-amino-7H-pyrrolo[2,3-d]pyrimidin-7-yl)-4-((((1s,3S)-3-(2-(5-(tert-butyl)-1H-benzo[d]imidazol-2-yl)ethyl)cyclobutyl) (isopropyl)amino)methyl)cyclopentanol], the IC50 was in the range of 1000 to 10000 nM.
Regarding `CC(C)N(C[C@H]1C[C@@H](n2ccc3c(N)ncnc32)[C@H](O)[C@@H]1O)C1CC(CCc2nc3cc(C(F)(F)F)c(Cl)cc3[nH]2)C1` (stereo partly drawn) [Compound 20, (1R,2S,3R,5R)-3-(4-amino-7H-pyrrolo[2,3-d]pyrimidin-7-yl)-5-(((3-(2-(6-chloro-5-(trifluoromethyl)-1H-benzo[d]imidazol-2-yl)ethyl)cyclobutyl)(isopropyl)amino)methyl)cyclopentane-1,2-diol], the IC50 is < 100 nM.
On the same count and under the same terms, the result for `COCC(C)(C)c1ccc2[nH]c(CC[C@H]3C[C@@H](N(C[C@H]4O[C@@H](n5cnc6c(N)ncnc65)[C@H](O)[C@@H]4O)C(C)C)C3)nc2c1` [Compound 122, (2R,3R,4S,5R)-2-(6-amino-9H-purin-9-yl)-5-((isopropyl((1r,3S)-3-(2-(5-(1-methoxy-2-methylpropan-2-yl)-1H-benzo[d]imidazol-2-yl)ethyl)cyclobutyl)amino)methyl) tetrahydrofuran-3,4-diol] reads < 100 nM.
Regarding `CC(C)N(C[C@H]1O[C@@H](n2cnc3c(N)ncnc32)[C@H](O)[C@@H]1O)[C@H]1C[C@H](CCc2nc3cc(C4(C)CCC4)ccc3[nH]2)C1` [Compound 31, (2R,3R,4S,5R)-2-(6-amino-9H-purin-9-yl)-5-((isopropyl((1s,3R)-3-(2-(5-(1-methylcyclobutyl)-1H-benzo[d]imidazol-2-yl)ethyl)cyclobutyl)amino)methyl)tetrahydrofuran-3,4-diol], the IC50 was < 100 nM.
On the same count and under the same terms, the result for `CN(C[C@H]1O[C@@H](n2cnc3c(N)ncnc32)[C@H](O)[C@@H]1O)[C@H]1C[C@@H](CCc2nc3cc(C(C)(C)C)ccc3[nH]2)C1` [Compound 71, (2R,3R,4S,512)-2-(6-amino-9H-purin-9-yl)-5-((((1r,3S)-3-(2-(5-(tert-butyl)-1H-benzo[d]imidazol-2-yl)ethyl)cyclobutyl)(methyl)amino)methyl)tetrahydrofuran-3,4-diol] reads < 100 nM.
On the same count and under the same terms, the result for `CC(C)(C)c1ccc2[nH]c(CC[C@H]3C[C@@H](N(C[C@H]4O[C@@H](n5cnc6c(N)ncnc65)[C@H](O)[C@@H]4O)CC(F)(F)F)C3)nc2c1` [Compound 102, (2R,3R,4S,5R)-2-(6-amino-9H-purin-9-yl)-5-((((1r,3S)-3-(2-(5-(tert-butyl)-1H-benzo[d]imidazol-2-yl)ethyl)cyclobutyl) (2,2,2-trifluoroethyl)amino)methyl)tetrahydrofuran-3,4-diol] reads 100 to 1000 nM; that for `CC(C)N(CC1CC(Cc2nc3cc(C(F)(F)F)c(Cl)cc3[nH]2)C1)C[C@H]1C[C@@H](n2ccc3c(N)ncnc32)[C@H](O)[C@@H]1O` (stereo partly drawn) [Compound 21, (1R,2S,3R,5R)-3-{4-amino-7H-pyrrolo[2,3-d]pyrimidin-7-yl}-5-({[(3-{[6-chloro-5-(trifluoromethyl)-1H-1,3-benzodiazol-2-yl]methyl}cyclobutyl)methyl](propan-2-yl)amino}methyl)cyclopentane-1,2-diol], 1000 to 10000 nM; that for `CN(C[C@H]1O[C@@H](n2cnc3c(N)ncnc32)[C@H](O)[C@@H]1O)[C@H]1C[C@H](CCc2nc3cc(C(C)(C)C)ccc3[nH]2)C1` [Compound 72, (2R,3R,4S,5R)-2-(6-amino-9H-purin-9-yl)-5-((((1s,3R)-3-(2-(5-(tert-butyl)-1H-benzo[d]imidazol-2-yl)ethyl)cyclobutyl)(methyl)amino)methyl)tetrahydrofuran-3,4-diol], < 100 nM.
Same read-out and setting: the result for `CN(C[C@H]1O[C@@H](n2cnc3c(N)ncnc32)[C@H](O)[C@@H]1O)[C@H]1C[C@@H](CCc2nc3cc(C4(C#N)CC4)ccc3[nH]2)C1` [Compound 137, 1-(2-(2-((1S,3r)-3-((((2R,3S,4R,5R)-5-(6-amino-9H-purin-9-yl)-3,4-dihydroxytetrahydro-furan-2-yl)methyl)(methyl)amino)cyclobutyl)ethyl)-1H-benzo[d]imidazol-5-yl)cyclo-propanecarbonitrile] reads < 100 nM.
Consider `CN(C[C@@H]1C[C@@H](O)[C@H](n2ccc3c(N)ncnc32)C1)[C@H]1C[C@H](CCc2nc3cc(Cl)c(C(F)(F)F)cc3[nH]2)C1` [Compound 85, (1R,2R,4S)-2-(4-amino-7H-pyrrolo[2,3-d]pyrimidin-7-yl)-4-((((1s,3S)-3-(2-(5-chloro-6-(trifluoromethyl)-1H-benzo[d]imidazol-2-yl)ethyl)cyclobutyl) (methyl)amino)methyl) cyclopentanol], for which the IC50 lay within 10000 to 50000 nM.
Regarding `CN(C[C@H]1C[C@@H](n2ccc3c(N)ncnc32)[C@H](O)[C@@H]1O)C1CC(CCc2nc3cc(C(F)(F)F)c(Cl)cc3[nH]2)C1` (stereo partly drawn) [Compound 7, (1R,2S,3R,5R)-3-(4-amino-7H-pyrrolo[2,3-d]pyrimidin-7-yl)-5-(((3-(2-(6-chloro-5-(trifluoromethyl)-1H-benzo[d]imidazol-2-yl)ethyl)cyclobutyl)(methyl)amino)methyl)cyclopentane-1,2-diol], the IC50 is < 100 nM.
On the same count and under the same terms, the same measure for `CC(C)(C)c1ccc2[nH]c(CC[C@H]3C[C@H](NC[C@H]4O[C@@H](n5cnc6c(N)ncnc65)[C@H](O)[C@@H]4O)C3)nc2c1` [Compound 99, (2R,3R,4S,5R)-2-(6-amino-9H-purin-9-yl)-5-((((1s,3R)-3-(2-(5-(tert-butyl)-1H-benzo[d]imidazol-2-yl)ethyl)cyclobutyl)amino)methyl) tetrahydrofuran-3,4-diol]: < 100 nM.
Consider `COCC(C)(C)c1ccc2[nH]c(CCC3CC(N(C[C@H]4O[C@@H](n5cnc6c(N)ncnc65)[C@H](O)[C@@H]4O)C(C)C)C3)nc2c1` (stereo partly drawn) [Compound 118, (2R,3R,4S,5R)-2-(6-amino-9H-purin-9-yl)-5-((isopropyl(3-(2-(5-(1-methoxy-2-methylpropan-2-yl)-1H-benzo[d]imidazol-2-yl)ethyl)cyclobutyl)amino)methyl) tetrahydrofuran-3,4-diol], for which the IC50 is < 100 nM.
Same read-out and setting: the same measure for `CC(C)CN(C[C@H]1C[C@@H](n2ccc3c(N)ncnc32)[C@H](O)[C@@H]1O)[C@H]1C[C@H](CCc2nc3cc(C(C)(C)C)ccc3[nH]2)C1` [Compound 48, (1R,2S,3R,5R)-3-(4-amino-7H-pyrrolo[2,3-d]pyrimidin-7-yl)-5-((((1s,3R)-3-(2-(5-(tert-butyl)-1H-benzo[d]imidazol-2-yl)ethyl)cyclobutyl)(isobutyl)amino)methyl)cyclopentane-1,2-diol]: < 100 nM.
Same read-out and setting: the result for `CN(C[C@H]1C[C@@H](n2ccc3c(N)ncnc32)[C@H](O)[C@@H]1O)[C@H]1C[C@@H](CCc2nc3cc(OC(F)(F)F)ccc3[nH]2)C1` [Compound 37, (1R,2S,3R,5R)-3-(4-amino-7,1-pyrrolo[2,3-d]pyrimidin-7-yl)-5-((methyl((1r,3S)-3-(2-(5-(trifluoromethoxy)-1H-benzo[d]imidazol-2-yl)ethyl)cyclobutyl)amino)methyl)cyclopentane-1,2-diol] reads < 100 nM.
